# Test system: DMS 273
# Experiment: NCI sulforhodamine B assay
# Assay type: cell-based, human
smiles,measurement,setting,value
"COC(=O)C1CC2=C(C(=O)c3c(cc4ccccc4c3O)C2=O)C(O[C@H]2C[C@H](NC(=O)C(F)(F)F)[C@H](O)[C@H](C)O2)O1 (mixture of isomers) [BCH-242, (1'S,1R,3S) and (1'S, 1S,3R)-Methyl[11-hydroxy-1-2',3',6'-trideoxy-3-trifluroacetamido-L-lyxohexopyranose)-5,12-dioxo-3,4,5,12-tetrahydroanthraceno[2,3-c]pyran-3-yl]formate]",Log10 LC50,"DMS 273, 2880 min",-5.31 log molar
same,CC50,"Homo sapiens, DMS-273, 48 h, read-out: Log10 LC50, DMS 273 (converted)",9.77 µM

# Source: patent US5593970A, “Heterocyclic anthracycline analogs” (priority 1994, dated 1997)
